Results: US20250025427A1, “MIXED AMIDE ESTER CONTAINING LIPIDS FOR USE IN LIPID NANOPARTICLES” (Acuitas Therapeutics, Inc., priority 2023, published 2025)

test system: human IgG in mouse serum; experiment: Immunoglobulin G (IgG) mRNA in vivo evaluation using lipid nanoparticle compositions; set-up: species or system mice; conditions: LNP with the cationic lipid, 0.3 mg mRNA/kg, tail vein injection, μg IgG/mL serum 24 hours after administration
Experimental: (§1) A lipid of Formula (I), DSPC, cholesterol and PEG-lipid of Formula (II) are solubilized in ethanol at a molar ratio of 50:10:38.5:1.5 or 47.5:10:40.7:1.8. Lipid nanoparticles (LNP) are prepared at a total lipid to mRNA weight ratio of approximately 10:1 to 40:1. Briefly, the mRNA is diluted to 0.2 mg/mL in 10 to 50 mM citrate buffer, pH 4 to 6 or 10 to 25 mM acetate buffer, pH 4 to 6. Syringe pumps are used to mix the ethanolic lipid solution with the mRNA aqueous solution at a ratio of about 1:5 to 1:3 (vol/vol) with total flow rates above 15 mL/min. The ethanol is then removed, and the external buffer replaced with PBS by dialysis. Finally, the lipid nanoparticles are filtered through a 0.2 µm pore sterile filter.
Studies are performed in 6-8-week-old CD-1/ICR mice (Charles River or Inotiv) according to guidelines established by an institutional animal care committee (ACC) and the Canadian Council on Animal Care (CCAC). Varying doses of mRNA-lipid nanoparticle are systemically administered by tail vein injection and animals euthanized at a specific time point (e.g., 24 hours) post-administration. The whole blood is collected, and the serum subsequentially separated by centrifuging the tubes of the whole blood at 2000×g for 10 minutes at 4° C. and stored at −80° C. until use for analysis.
For immunoglobulin G (IgG) ELISA (Life Diagnostics Human IgG ELISA kit), the serum samples are diluted at 100 to 20,000 folds with 1× diluent solution. 100 μL of diluted serum is dispensed into anti-human IgG coated 96-well plate in duplicate alongside human IgG standards and incubated in a plate shaker at 150 rpm at 25° C. for 45 minutes. The wells are washed 5 times with 1× wash solution using a plate washer (400 μL/well). 100 μL of HRP conjugate is added into each well and incubated in a plate shaker at the same condition above. The wells are washed 5 times again with 1× wash solution using a plate washer (400 μL/well). 100 μL of TMB reagent is added into each well and incubated in a plate shaker at the same condition above. The reaction is stopped by adding 100 μL of Stop solution to each well. The absorbance is read at 450 nm (A450) with a microplate reader. The amount of human IgG in mouse serum is determined by plotting A450 values for the assay standard against human IgG concentration.
Representative compounds of the disclosure shown in Table 2 were formulated using the following molar ratio: 50% cationic lipid/10% distearoylphosphatidylcholine (DSPC)/38.5% Cholesterol/1.5% PEG lipid 2-[2-(ω-methoxy(polyethyleneglycohooo)ethoxy]-N,N-ditetradecylacetamide) or 47.5% cationic lipid/10% DSPC/40.7% Cholesterol/1.8% PEG lipid. Relative activity was determined by measuring the amount of human IgG […]. The activity was compared at a dose of 1.0 or 0.3 mg mRNA/kg and expressed as ng luciferase/g liver measured 4 hours after administration, as described in Example 1 or as μg IgG/mL serum measured 24 hours after administration, as described in Example 2. Compound numbers in Table 2 refer to the compound numbers of Table 1.

Row | Compound | Serum IgG (μg/mL) @ 0.3 mg/kg [µg/mL]
1 | CCCCCCCCCCCCCCCCN(CCCN(C)CCCCCCCC(=O)N(CCCCCCCCCC)CCCCCC(=O)OCC(CCCC)CCCCCC)C(=O)CCCCC(=O)OCC(CCCCCC)CCCCCCCC (centres unmarked) [Compound I-38, 2-Hexyldecyl 6-((3-((8-((6-((2-Butyloctyl)Oxy)-6-Oxohexyl)(Decyl)Amino)-8-Oxooctyl)(Methyl)Amino)Propyl)(Hexadecyl)Amino)-6-Oxohexanoate] | 21.9 ± 8.8
2 | CCCCCCCCCCN(CCCCCC(=O)OCC(CCCCCC)CCCCCCCC)C(=O)CCCCCCCN(C)CCCCCCCC(=O)N(CCCCCCCCCC)CCCCCC(=O)OCC(CCCCCC)CCCCCCCC (centres unmarked) [Compound I-40, Bis(2-Hexyldecyl) 6,6′-((8,8′-(Methylazanediyl)Bis(Octanoyl))Bis(Decylazanediyl))Dihexanoate] | 13.8 ± 6.0
3 | CCCCCCCCC(CCCCCC)COC(=O)CCCCCN(CCCCCCCC)C(=O)CCCCCCCN(C)CCCCCCCC(=O)N(CCCCCCCC)CCCCCC(=O)OCC(CCCCCC)CCCCCCCC (centres unmarked) [Compound I-41, Bis(2-Hexyldecyl) 6,6′-((8,8′-(Methylazanediyl)Bis(Octanoyl))Bis(Octylazanediyl))Dihexanoate] | 19.2 ± 6.8
4 | CCCCCCCCC(CCCCCC)COC(=O)CCCCCN(CCCCCCCCN(C)CCCCCCCCN(CCCCCC(=O)OCC(CCCCCC)CCCCCCCC)C(=O)CCCCC)C(=O)CCCCC (centres unmarked) [Compound I-43, Bis(2-Hexyldecyl) 6,6′-(((Methylazanediyl)Bis(Octane-8,1-Diyl))Bis(Hexanoylazanediyl))Dihexanoate] | 49.9 ± 14.8
5 | CCCCCCCCC(CCCCCC)COC(=O)CCCCC(=O)N(CCCCCC)CCCCCCCCN(C)CCCCCCCCN(CCCCCC)C(=O)CCCCC(=O)OCC(CCCCCC)CCCCCCCC (centres unmarked) [Compound I-45, Bis(2-Hexyldecyl) 6,6′-(((Methylazanediyl)Bis(Octane-8,1-Diyl))Bis(Hexylazanediyl))Bis(6-Oxohexanoate)] | 18.3 ± 4.6
6 | CCCCCCCCC(CCCCCC)COC(=O)CCCCCN(CCCCCC)C(=O)CCCCCN(C)CCCCCCCC(=O)N(CCCCCC)CCCCCCOC(=O)C(CCCCCC)CCCCCCCC (centres unmarked) [Compound I-46, 7,23,32-Trihexyl-16-Methyl-8,22,29-Trioxo-30-Oxa-7,16,23-Triazatetracontyl 2-Hexyldecanoate] | 34.4 ± 11.3
7 | CCCCCCCCC(CCCCCC)COC(=O)CCCCCN(CCCCCC)C(=O)CCN(C)CCC(=O)N(CCCCCC)CCCCCC(=O)OCC(CCCCCC)CCCCCCCC (centres unmarked) [Compound I-48, Bis(2-Hexyldecyl) 6,6′-((3,3′-(Methylazanediyl)Bis(Propanoyl))Bis(Hexylazanediyl))Dihexanoate] | 27.5 ± 12.7
8 | CCCCCCCCC(CCCCCC)COC(=O)CCCCCCCCCN(CCCCCC)C(=O)CCCN(C)CCCC(=O)N(CCCCCC)CCCCCCCCCC(=O)OCC(CCCCCC)CCCCCCCC (centres unmarked) [Compound I-50, Bis(2-Hexyldecyl) 10,10′-((4,4′-(Methylazanediyl)Bis(Butanoyl))Bis(Hexylazanediyl))Bis(Decanoate)] | 11.6 ± 8.2
9 | CCCCCCCCC(CCCCCC)COC(=O)CCCCCN(CCCCCC)C(=O)CCCN(C)CCCC(=O)N(CCCCCC)CCCCCC(=O)OCC(CCCCCC)CCCCCCCC (centres unmarked) [Compound I-52, Bis(2-Hexyldecyl) 6,6′-((4,4′-(Methylazanediyl)Bis(Butanoyl))Bis(Hexylazanediyl))Dihexanoate] | 13.0 ± 4.1

test system: luciferase protein (FLuc mRNA) expression in liver; experiment: Luciferase mRNA in vivo evaluation using lipid nanoparticle compositions; set-up: species or system mice; conditions: LNP with the cationic lipid, 0.3 mg mRNA/kg, tail vein injection, ng luciferase/g liver 4 hours after administration
Experimental: as §1
Studies are performed in 6-8-week-old female C57BL/6 mice (Charles River) or 8-10-week-old CD-1 mice (Charles River or Inotiv) according to guidelines established by an institutional animal care committee (ACC) and the Canadian Council on Animal Care (CCAC). Varying doses of mRNA-lipid nanoparticle are systemically administered by tail vein injection and animals euthanized at a specific time point (e.g., 4 hours) post-administration. Liver and spleen are collected in pre-weighed tubes, weights determined, immediately snap frozen in liquid nitrogen, and stored at −80° C. until processing for analysis. […]

Row | Compound | Liver Luc (ng/g) @ 0.3 mg/kg [ng/g]
10 | CCCCCCCCCCN(CCCCCCCCCC)C(=O)CCCCCCCN(C)CCCCCCCC(=O)NCCCCCC(=O)OCC(CCCCCC)CCCCCCCC (centres unmarked) [Compound I-3, 2-Hexyldecyl 6-(8-((8-(Didecylamino)-8-Oxooctyl)(Methyl)Amino)Octanamido)Hexanoate] | 8191 ± 2369

same assay, conditions: LNP with the cationic lipid, 1.0 mg mRNA/kg, tail vein injection, ng luciferase/g liver 4 hours after administration

Row | Compound | Liver Luc (ng/g) @ 1.0 mg/kg [ng/g]
11 | CCCCCCCCCCN(CCCCCCCCCC)C(=O)CCCCCCCN(C)CCCCCCCC(=O)NCCCCCC(=O)OCC(CCCCCC)CCCCCCCC (centres unmarked) [Compound I-3, 2-Hexyldecyl 6-(8-((8-(Didecylamino)-8-Oxooctyl)(Methyl)Amino)Octanamido)Hexanoate] | 25381 ± 4022
